# In patent US10933053B2, “Treating infections with ceftolozane/tazobactam in subjects having impaired renal function” (MERCK SHARP & DOHME CORP., priority 2013, dated 2021):
# Where “and” joins values, the source holds several entries; their conditions need not be identical. Equal values may be shown once.
# How the values were obtained:
# [1] = Population PK model of ceftolozane and tazobactam (healthy volunteers, renal impairment, cUTI/cIAI patients); settings: for CLd, population estimate: intercompartmental clearance; for Vc (L)^d, population estimate: peripheral volume of distribution per footnote
# Experimental: A population-PK analysis was performed on plasma ceftolozane and tazobactam concentration-time data from adult subjects enrolled in 10 studies. Subjects were included from multiple sites and all studies were performed in accordance with the International Conference on Harmonization guidelines on good clinical practice and the Declaration of Helsinki. An investigational review board approved the study protocols at each site.
# Serum concentration data were analyzed from 5 studies in healthy volunteers (n=184), 3 studies in subjects with varying degrees of renal impairment (n=42), and 2 phase 2 studies in patients with bacterial infections (cUTIs [n=73] and cIAIs [n=77]). In all studies, ceftolozane was administered as a 1-hour intravenous infusion either alone or in combination with tazobactam at a fixed 2:1 ratio (ceftolozane:tazobactam). […] In the phase 2 trials, cUTI patients received ceftolozane alone 1000 mg (q8h) and cIAI patients received ceftolozane/tazobactam 1000/500 mg (q8h).
# All subjects who received at least 1 dose of study medication and had at least 1 measurement of ceftolozane or tazobactam were included (N=376). Plasma concentrations of ceftolozane and tazobactam were determined by a validated liquid-chromatography-tandem mass spectrometry assay (MicroConstants, Inc., San Diego, Calif.) described previously. Concentrations below the limit of quantitation (BLQ), as defined previously, were considered as missing. No substitutions were made to account for these missing data points.
# Base model development. The model was developed in 2 stages: a preliminary PK model was developed based on datasets from 3 studies. In the current analysis, the structural model was refined using the PK data from 10 studies (including patients with cUTI or cIAI) and the covariate analysis repeated. The results based on this revised model are presented here. A nonlinear mixed-effects model was developed with Phoenix® NLME™ software, version 1.2, 2012 (Certara L. P. Pharsight, St. Louis, Mo.) using first-order maximum likelihood estimation, and a 2-compartment structure model was fitted to the plasma concentration time data. The First Order Conditional Estimation-Extended Least Squares (FOCE-ELS) engine was used for model fitting. The software R (R Foundation for Statistical Computing, Vienna, Austria, 2013) was used to generate tables of post hoc PK parameters and descriptive statistics.
# Sources of variability, that may affect drug exposure, were identified using correlation plots of individual random effects (ETA with mean 0 and estimated variance ? ^2) of parameters such as systemic clearance (CL) and central volume of distribution (Vc) versus covariates. Extrinsic covariates analyzed included dose levels, drug-drug interactions between ceftolozane and tazobactam, and disease status (bacterial infections). Intrinsic covariates analyzed included body weight, age, sex, ethnicity, and baseline calculated CrCL). […] Renal impairment was categorized as normal (CrCL≥90 mL/min), mild (CrCL≥50-<90 mL/min), moderate (CrCL≥30-<50 mL/min), and severe (CrCL≥15-<30 mL/min).
# Scatter plots were used to examine the effect of continuous variables and box plots were used for categorical variables. […] Covariates were introduced in a multiplicative order using a power model standardized by the median for continuous covariates and a linear model with an exponentiated factor relative to the reference for categorical covariates.
# Final population PK model: evaluation and performance. The final population-PK models for ceftolozane and tazobactam were evaluated using standard diagnostics, goodness-of-fit criteria, nonparametric bootstrap resampling, and visual predictive check (VPC).
# [2] = subjects with normal renal function; cited from earlier work
# [3] = parameters: species or system human
# Source text: Phoenix™ Non Linear Mixed Effects (NLME) version 1.2 (Pharsight Corporation, Certara USA, Inc., 9666 Olive Blvd., Suite 425, St. Louis, Mo. 63132 USA) with the extended least squares first order conditional estimation (FOCE-ELS) was used for population PK modeling and SAS® 9.3 (SAS Institute Inc., 100 SAS Campus Drive, Cary, N.C. 27513-2414, USA) with finite element method (FEM) was used for Monte Carlo simulation. R (2.15.0) and SAS® 9.3 were used for data management, statistical summaries and table/figures generation.
# No other structural model was further tested unless necessary. Ceftolozane or tazobactam plasma concentration-time data with hemodialysis were then included and hemodialysis was tested as a covariate effect on both clearance and volume of distribution for the central compartment. The final model was selected based on the stability of the model, reliability and interpretability of the parameter estimates and the goodness-of-fit plots.
# The population PK model for ceftolozane was developed via a 2-step process. First, the ceftolozane plasma concentrations without hemodialysis (first dose) were modeled and best described with a 2-compartment disposition model (FIG. 15) plus a proportional residual error model. The between-subject variability was reliably estimable on all four PK parameters CL, Vc, CL2 and V2. When the ceftolozane plasma concentrations following the second dose with hemodialysis were included, the above model, with the addition of a dichotomous covariate and a between-subject variability for the effect of hemodialysis, was the best to fit the combined data.
# Similar to ceftolozane, tazobactam plasma concentrations without hemodialysis (first dose) were first modeled and well described with a 2-compartment disposition model (FIG. 15) plus a proportional residual error model. The between-subject variability was reliably estimable on all four PK parameters CL, Vc, CL2 and V2. When the tazobactam plasma concentrations following the second dose were included, the model with hemodialysis evaluated as a dichotomous covariate with a between-subject variability was the best to fit all the combined data. […] (17)
# Ceftolozane/tazobactam plasma concentrations collected from 6 patients with ESRD following a single dose without hemodialysis and a second dose with hemodialysis were used to develop a population PK model (Phoenix™ Non Linear Mixed Effects [NLME]).
# A 2-compartment disposition model was used to fit the ceftolozane or tazobactam plasma concentration-time data without hemodialysis and to test the between-subject variability and residual variability. Ceftolozane or tazobactam plasma concentration-time data with hemodialysis were then included and hemodialysis was tested as a covariate effect on both clearance and volume of distribution for the central compartment.
SMILES,Exponent of the relationship between CLcr and CL ([1]; Table 31 model),"Interindividual variability of CL, estimate ([1]; Table 31 model) [%]","Interindividual variability of Vc, estimate ([1]; Table 31 model) [%]",Proportional shift in Vc for infected patients ([1]; Table 31 model),"Vc, population estimate ([1]; Table 31 model) [L]","CLd, population estimate ([1]; Table 31 model) [L/h]","Vc (L)^d, population estimate ([1]; Table 31 model) [L]",between-subject variability (BSV) of CL ([1]; final model) [%],median daily steady-state AUC [2] [µg·h/mL],BSV % (RSE %) of CL ([3]; ESRD),BSV % (RSE %) of V2 ([3]; ESRD),BSV % (RSE %) of log-scale coefficient of hemodialysis on CL ([3]; ESRD),"Log-scale coefficient of hemodialysis on CL, mean estimate ([3]; ESRD)","Log-scale coefficient of hemodialysis on Vc, mean estimate ([3]; ESRD)",increase of CL by HD ([3]; ESRD) [fold],increase of Vc by HD ([3]; ESRD) [fold],"V2, volume of distribution for peripheral compartment, mean estimate ([3]; human)",apparent terminal half-life ([3]; human),apparent volume of distribution for the central compartment with hemodialysis ([3]; human),clearance with hemodialysis ([3]; human),also measured
"C[C@]1(Cn2ccnn2)[C@H](C(=O)O)N2C(=O)C[C@H]2S1(=O)=O [Tazobactam, tazobactam]",0.67,50.2,52.5,1.47,14.2,3.13,4.29,50.2,89.4,142 (29.3) %,24.3 (39.8) %,29 (31.4) %,1.89 and 1.9,0.434 and 0.43,6.6,1.5,6.55,about 4 hours,about 16 L,about 20 L/hr,"power function of baseline CrCL on CL ([1]; [CrCL/115] exponent): 0.67; CL, population estimate ([1]; final model): 18.0 L/h; between-subject variability (BSV) of Vc ([1]; final model): 52.5%; inter-compartment clearance (CL2), population PK ([1]; final model): 3.13 L/h; volume of distribution in the peripheral compartment (Vp), population PK ([1]; final model): 4.29 L; CL, population estimate ([1]; previously-developed population PK model (Table 31)): 18.0 L/h; Vc, population estimate ([1]; subjects without infection): 14.2 L; BSV % (RSE %) of Vc ([3]; ESRD): 398 (34.3) %; half-life ([3]; human): about 1 hours"
"Cn1c(N)c(NC(=O)NCCN)c[n+]1CC1=C(C(=O)O)N2C(=O)[C@@H](NC(=O)/C(=N\OC(C)(C)C(=O)O)c3nsc(N)n3)[C@H]2SC1 [Ceftolozane, (6R,7R)-3-[(5-amino-4-{[(2-aminoethyl)carbamoyl]amino}-1-methyl-1H-pyrazol-2-ium-2-yl)methyl]-7-({(2Z)-2-(5-amino-1,2,4-thiadiazol-3-yl)-2-[(1-carboxy-1-methylethoxy)imino]acetyl}amino)-8-oxo-5-thia-1-azabicyclo[4.2.0]oct-2-ene-2-carboxylate]",0.75,34.3,34.0,1.37,11.8,0.884,2.88,33.0,690,52.2 (29.2) %,48.4 (29.9) %,69.6 (29.8) %,4.09 and 4.1,1.54 and 1.5,60,4.7,11.8,about 40 hours,about 28 L,about 20 L/hr,"Exponent of the relationship between weight and CL ([1]; Table 31 model): 0.76; Proportional shift in CL for infected patients ([1]; Table 31 model): 1.26; Vc, population PK ([1]; cIAI): 18.2 L; Vc, population PK ([1]; cUTI, at 74 kg body weight): 13.8 L; CL, population estimate ([1]; human): 5.14 L/h; inter-compartment clearance (CL2), population PK ([1]; human): about 1 L/h; volume of distribution in the peripheral compartment (Vp), population PK ([1]; human): about 3 L; CL higher than in healthy subjects ([1]; patients with cUTI and cIAI): about 20%; BSV % (RSE %) of CL2 ([3]; ESRD): 35.9 (41.9) %; BSV % (RSE %) of log-scale coefficient of hemodialysis on Vc ([3]; ESRD): 40.0 (34.7) %; Vc, volume of distribution for central compartment, mean estimate ([3]; human): 6 FIXED L; half-life ([3]; human): about 2 hours"
